# According to publication PMC7031696 (Cell chemical biology, 2019):
# Like-named read-outs stand apart in the source and are kept apart here.
# Experiments:
# [1] = system: Plasmodium falciparum 3D7-A10 parasites; assay: Stage specificity assay (8-h exposure of synchronized stages, IC50^8h); type: cell-based; conditions: for IC50: Plasmodium falciparum
# [2] = system: 3D7-MR4 trophozoite parasite-infected RBCs; assay: Metabolomic profiling (hydrophilic metabolite changes, UHPLC-MS); type: cell-based, Plasmodium falciparum
# [3] = system: asynchronous 3D7-A10 parasite cultures; assay: Standard 72-h exposure asexual blood stage susceptibility assay (IC50^72h); type: cell-based, Plasmodium falciparum; conditions: Plasmodium falciparum, 3D7, 72 h, read-out: Overall (72hr assay) Mean IC50 (IC50^72h)
structure (smiles),measurement,setting,value
Cc1ccc(Oc2ncccc2C(=O)Nc2cccc3cccnc23)c(C)c1 [MMV020746],Ratio lowest IC50 8hr/IC50 72hr,[1]; 3D7-A10,221.5
same,IC50,"[1]; 3D7, read-out: Early rings IC50 (IC50^8h), 8-h exposure 0–8 hr, bound given in μM",> 25 µM
same,IC50,"[1]; 3D7, read-out: Early trophozoites Mean IC50 (IC50^8h), 8-h exposure 16–24 hr, 3D7-A10, survival at 60 h",12.6 µM
same,IC50,"[1]; 3D7, read-out: Late rings IC50 (IC50^8h), 8-h exposure 8–16 hr, bound given in μM",> 25 µM
same,IC50,"[1]; 3D7, read-out: Late trophozoites IC50 (IC50^8h), 8-h exposure 24–32 hr, bound given in μM",> 25 µM
same,IC50,"[1]; 3D7, read-out: Schizonts IC50 (IC50^8h), 8-h exposure 32–40 hr, bound given in μM",> 25 µM
same,IC50^8h relative to IC50^72h value,[1]; most susceptible stages,> 28 fold
same,peptide levels (hemoglobin catabolism signature),"[2]; 10 × IC50^72h, 2.5 hr, trophozoites",decreased peptide levels
same,Log2(fold changes) 3-phosphoglycerate,"[2]; metabolite 3-phosphoglycerate, log2 fold change",-0.8487
same,Log2(fold changes) 4-Pyridoxic acid,"[2]; metabolite 4-Pyridoxic acid, log2 fold change",-0.4495
same,Log2(fold changes) 4-aminobutyrate,"[2]; metabolite 4-aminobutyrate, log2 fold change",-0.1236
same,Log2(fold changes) 4-phosphopantetheine,"[2]; metabolite 4-phosphopantetheine, log2 fold change",0.0000
same,Log2(fold changes) 4-phosphopantothenate,"[2]; metabolite 4-phosphopantothenate, log2 fold change",-0.7722
same,Log2(fold changes) 5-aminopentanoic acid,"[2]; metabolite 5-aminopentanoic acid, log2 fold change",0.0000
same,Log2(fold changes) 5-methyl-THF,"[2]; metabolite 5-methyl-THF, log2 fold change",0.0000
same,Log2(fold changes) 5-phosphoribosyl-1-pyrophosphate,"[2]; metabolite 5-phosphoribosyl-1-pyrophosphate, log2 fold change",0.0000
same,Log2(fold changes) 6-phospho-D-gluconate,"[2]; metabolite 6-phospho-D-gluconate, log2 fold change",-0.3888
same,Log2(fold change) HVDD,[2]; metabolite HVDD,-4.2936
same,Log2(fold change) Hydroxyisocaproic acid,[2]; metabolite Hydroxyisocaproic acid,0.0000
same,Log2(fold change) IDP,[2]; metabolite IDP,0.0000
same,Log2(fold change) IMP,[2]; metabolite IMP,-0.0604
same,Log2(fold change) Inositol,[2]; metabolite Inositol,0.0000
same,Log2(fold change) Isopentyl-PP,[2]; metabolite Isopentyl-PP,-0.6932
same,Log2(fold change) L-arginino-succinate,[2]; metabolite L-arginino-succinate,-0.2156
same,Log2(fold change) LD,[2]; metabolite LD,0.1860
same,Log2(fold change) Myristoyl/tetradecanoyl-CoA,[2]; metabolite Myristoyl/tetradecanoyl-CoA,0.0000
same,Log2(fold change) N-Acetyl-L-alanine,[2]; metabolite N-Acetyl-L-alanine,0.0990
same,Log2(fold change) N-acetyl-L-ornithine,[2]; metabolite N-acetyl-L-ornithine,-1.5863
same,Log2(fold change) N-acetyl-glucosamine-1/6-phosphate,[2]; metabolite N-acetyl-glucosamine-1/6-phosphate,0.3354
same,Log2(fold change) N-acetyl-glutamate,[2]; metabolite N-acetyl-glutamate,-0.0291
same,Log2(fold change) N-acetyl-glutamine,[2]; metabolite N-acetyl-glutamine,0.3326
same,Log2(fold change) N-carbamoyl-L-aspartate,[2]; metabolite N-carbamoyl-L-aspartate,-0.0111
same,Log2(fold change) NAD+,[2]; metabolite NAD+,-0.2290
same,Log2(fold change) NADH,[2]; metabolite NADH,3.2383
same,Log2(fold change) NADP+,[2]; metabolite NADP+,-0.2621
same,Log2(fold change) NADPH,[2]; metabolite NADPH,2.9387
same,Log2(fold change) O-acetyl-L-serine,[2]; metabolite O-acetyl-L-serine,-0.1299
same,Log2(fold change) Octoluse 8/1P,[2]; metabolite Octoluse 8/1P,-0.0750
same,Log2(fold change) Octoluse Bisphosphate,[2]; metabolite Octoluse Bisphosphate,0.1477
same,Log2(fold change) PD,[2]; metabolite PD,-2.6591
same,Log2(fold change) PE,[2]; metabolite PE,-2.3902
same,Log2(fold change) PEE,[2]; metabolite PEE,-2.3026
same,Log2(fold change) PEEK,[2]; metabolite PEEK,-2.5604
same,Log2(fold change) PVNF,[2]; metabolite PVNF,-4.8059
same,Log2(fold change) Pyroglutamic acid,[2]; metabolite Pyroglutamic acid,0.1917
same,Log2(fold change) Pyrophosphate,[2]; metabolite Pyrophosphate,0.0000
same,Log2(fold change) Ribose-5-phosphate,[2]; metabolite Ribose-5-phosphate,-0.7820
same,Log2(fold change) S-adenosyl-L-homocysteine,[2]; metabolite S-adenosyl-L-homocysteine,-0.0800
same,Log2(fold change) S-adenosyl-L-methioninamine,[2]; metabolite S-adenosyl-L-methioninamine,-2.2715
same,Log2(fold change) S-adenosyl-L-methionine,[2]; metabolite S-adenosyl-L-methionine,0.0000
same,Log2(fold change) S-methyl-5'-thioadenosine,[2]; metabolite S-methyl-5'-thioadenosine,0.5248
same,Log2(fold change) SD,[2]; metabolite SD,-1.2335
same,Log2(fold change) SDL,[2]; metabolite SDL,0.0000
same,Log2(fold change) SID,[2]; metabolite SID,-1.9821
same,Log2(fold change) Sedoheptulose bisphosphate,[2]; metabolite Sedoheptulose bisphosphate,-0.9337
same,Log2(fold change) Thiamine pyrophosphate,[2]; metabolite Thiamine pyrophosphate,-0.1414
same,Log2(fold changes) UDP-D-glucose,"[2]; metabolite UDP-D-glucose, log2 fold change",0.0347
same,Log2(fold changes) UDP-D-glucuronate,"[2]; metabolite UDP-D-glucuronate, log2 fold change",-0.1265
same,Log2(fold changes) UDP-N-acetyl-glucosamine,"[2]; metabolite UDP-N-acetyl-glucosamine, log2 fold change",-0.1353
same,Log2(fold changes) UDP,"[2]; metabolite UDP, log2 fold change",-0.5234
same,Log2(fold changes) UMP,"[2]; metabolite UMP, log2 fold change",0.1786
same,Log2(fold changes) UTP,"[2]; metabolite UTP, log2 fold change",0.0000
same,Log2(fold change) hydroxyphenylpyruvate,[2]; metabolite hydroxyphenylpyruvate,0.0000
same,Log2(fold change) hydroxyproline/Aminolevulinate,[2]; metabolite hydroxyproline/Aminolevulinate,-0.2593
same,Log2(fold change) hypoxanthine,[2]; metabolite hypoxanthine,0.0518
same,Log2(fold change) indole,[2]; metabolite indole,0.0000
same,Log2(fold change) inosine,[2]; metabolite inosine,-0.1327
same,Log2(fold change) isoleucine,[2]; metabolite isoleucine,0.0000
same,Log2(fold change) lactate,[2]; metabolite lactate,-0.6990
same,Log2(fold change) leucine,[2]; metabolite leucine,0.0000
same,Log2(fold change) lysine,[2]; metabolite lysine,-2.2531
same,Log2(fold change) malate,[2]; metabolite malate,-0.6987
same,Log2(fold change) maleic acid,[2]; metabolite maleic acid,-0.7709
same,Log2(fold change) methionine,[2]; metabolite methionine,-0.0286
same,Log2(fold change) myo-inositol,[2]; metabolite myo-inositol,-0.7655
same,Log2(fold change) nicotinamide mononucleotide,[2]; metabolite nicotinamide mononucleotide,-0.5765
same,Log2(fold change) nicotinate,[2]; metabolite nicotinate,-0.1328
same,Log2(fold change) ornithine,[2]; metabolite ornithine,-0.3857
same,Log2(fold change) orotate,[2]; metabolite orotate,-0.1387
same,Log2(fold change) orotidine-5'-phosphate,[2]; metabolite orotidine-5'-phosphate,0.0782
same,Log2(fold change) oxaloacetate,[2]; metabolite oxaloacetate,-0.6442
same,Log2(fold change) p-aminobenzoate,[2]; metabolite p-aminobenzoate,0.0000
same,Log2(fold change) p-hydroxybenzoate,[2]; metabolite p-hydroxybenzoate,0.0000
same,Log2(fold change) pantothenate,[2]; metabolite pantothenate,-0.1112
same,Log2(fold change) phenylalanine,[2]; metabolite phenylalanine,-0.4829
same,Log2(fold change) phenylpyruvate,[2]; metabolite phenylpyruvate,0.0000
same,Log2(fold change) phosphoenolpyruvate,[2]; metabolite phosphoenolpyruvate,-0.5858
same,Log2(fold change) prephenate,[2]; metabolite prephenate,-0.3824
same,Log2(fold change) proline,[2]; metabolite proline,-0.5702
same,Log2(fold change) pyridoxine,[2]; metabolite pyridoxine,-0.1642
same,Log2(fold change) pyruvate,[2]; metabolite pyruvate,-1.5001
same,Log2(fold change) riboflavin,[2]; metabolite riboflavin,0.4413
same,Log2(fold change) ribose,[2]; metabolite ribose,-0.0174
same,Log2(fold change) ribose-phosphate,[2]; metabolite ribose-phosphate,-1.1321
same,Log2(fold change) ribulose-5-phosphate,[2]; metabolite ribulose-5-phosphate,-0.7375
same,Log2(fold change) serine,[2]; metabolite serine,-0.1379
same,Log2(fold change) sn-glycerol-3-phosphate,[2]; metabolite sn-glycerol-3-phosphate,0.0529
same,Log2(fold change) succinate/Methylmalonic acid,[2]; metabolite succinate/Methylmalonic acid,-0.5504
same,Log2(fold change) succinyl-CoA/methylmalonyl-CoA,[2]; metabolite succinyl-CoA/methylmalonyl-CoA,0.0000
same,Log2(fold change) taurine,[2]; metabolite taurine,0.3831
same,Log2(fold change) thiamine,[2]; metabolite thiamine,-0.5873
same,Log2(fold change) threonine/homoserine,[2]; metabolite threonine/homoserine,-0.5084
same,Log2(fold change) thymidine,[2]; metabolite thymidine,0.0000
same,Log2(fold changes) thymine,"[2]; metabolite thymine, log2 fold change",0.0000
same,Log2(fold changes) trehalose-6-Phosphate,"[2]; metabolite trehalose-6-Phosphate, log2 fold change",0.0000
same,Log2(fold changes) tryptophan,"[2]; metabolite tryptophan, log2 fold change",-0.7516
same,Log2(fold changes) tyrosine,"[2]; metabolite tyrosine, log2 fold change",-0.2515
same,Log2(fold changes) uridine,"[2]; metabolite uridine, log2 fold change",0.0000
same,IC50,[3],0.0568 µM
